According to PMC5418711, “Safety and efficacy of the choline analogue SAR97276 for malaria treatment: results of two phase 2, open-label, multicenter trials in African patients” (Malaria Journal, 2017):
Like-named read-outs stand apart in the source and are kept apart here.

Key:
[1] = Study 1: safety assessment (TEAEs, laboratory tests, ECG); assay type: in vivo, human; details: for QTc interval - change from baseline Borderline: Incr. from B 30-60 ms / QTc interval - change from baseline Prolonged: Incr. from B > 60 ms / QTc interval Prolonged: > 450 ms (m); > 470 ms (f) / QTc interval ≥ 500 ms: TEAE period
Description: Follow-up visits were done on day 6, 8, 14 ± 2, 21 ± 2, 28 ± 2 (Study 1); and day 7, 14 ± 2, 21 ± 2, 28 ± 2 (Study 2). […] Parasitemia was determined microscopically by Giemsa stained thick blood smear by two trained microscopists blinded to each other. […] For Study 2 respiratory parameters (respiratory rate, peak flow, efficiency of cough) were also checked at baseline and 30 min after first dose on day 1, 2 and 3.
Treatment emergent adverse events (TEAEs) were defined as AEs that developed or worsened during the treatment period until day 6 following the end of study treatment.

malaria monkey model = system: malaria monkey model; design: method as in PMID 11847346, PMID 15492221, PMID 12878525; details: cited from earlier work
[2] = Population pharmacokinetics in plasma, Study 1 and Study 2; assay type: in vivo, human; details: for AUC(0-t) / Cmax / Vd / clearance: human, plasma; for AUC(0-t) / Cmax: mean and SD; for AUC(0-t): read-out: AUC or AUC0-24,ss; for Cmax: read-out: Cmax or Cmax,ss; for Vd: read-out: Median central volume of distribution V2; for clearance: read-out: Median clearance (converted)
Description: Rescue therapy was initiated in case of clinical aggravation of recrudescent parasites in both studies, the exact description for each study can be seen in the supplement (Additional file 3). Pharmacokinetic analysis: Plasma samples were assayed using a validated liquid chromatography-mass spectrometry method with a limit of quantification of 1 ng/ml for SAR97276. The pharmacokinetic analysis was performed using a population pharmacokinetic modeling approach.
The pharmacokinetics of SAR97276 were best described by a three-compartment model, with a first order absorption (ka), with interindividual variability on clearances and central volume of distribution.

[3] = Group 1A, one patient, three days after study medication
[4] = Group 1A: 1 day IM 0.18 mg/kg, adults, N=34
[5] = Group 1A: 1 day IM 0.18 mg/kg, adults
[6] = Group 1B: 3 days IM 0.18 mg/kg, adults, N=30
[7] = Group 1B: 3 days IM 0.18 mg/kg, adults
[8] = Group 1C: 1 day IV 0.14 mg/kg, adults, N=30
[9] = Group 1C: 1 day IV 0.14 mg/kg, adults
[10] = Group 1D: 3 days IM 0.18 mg/kg, children, N=19
[11] = Group 1D: 3 days IM 0.18 mg/kg, children
[12] = im, 0.18 mg/kg, Group 1D: 3 days IM 0.18 mg/kg, children, n=14
[13] = im, 0.18 mg/kg, Study 1 Adults IM (1A + 1B) 0.18 mg/kg, n=64
[14] = im, 0.5 mg/kg, Group 2A: 3 days IM once daily 0.5 mg/kg, teenagers, n=8
[15] = intramuscular, 0.18 mg/kg, children
[16] = iv, 0.14 mg/kg, Group 1C: 1 day IV 0.14 mg/kg, adults, n=30

Cc1c(CCO)sc[n+]1CCCCCCCCCCCC[n+]1csc(CCO)c1C [SAR97276A]
ALT increase in the patient with cytolytic hepatitis [1, 3]: 4.5 × upper limit than normal (ULN) | AST increase in the patient with cytolytic hepatitis [1, 3]: 11 × ULN | Total bilirubin in the patient with cytolytic hepatitis [1, 3]: ≥ 1.5 × ULN | Patients who did not complete study treatment [1, 4]: 0 | Patients with any TEAE [1, 4]: 18 (52.9%) | TEAE: Arthralgia [1, 4]: 1 (2.9%) | TEAE: Convulsion [1, 4]: 0 | TEAE: Cough [1, 4]: 2 (5.9%) | TEAE: Cytolytic hepatitis [1, 4]: 1 (2.9%) | TEAE: Dizziness [1, 4]: 1 (2.9%) | TEAE: Eyelid pruritus [1, 4]: 0 | TEAE: Gastrointestinal disorders [1, 4]: 3 (8.8%) | TEAE: General Disorders/Administration site disorders [1, 4]: 3 (8.8%) | TEAE: Headache [1, 4]: 4 (11.8%) | TEAE: Hypertension [1, 4]: 0 | TEAE: Malaria [1, 4]: 2 (5.9%) | TEAE: Neck pain [1, 4]: 2 (5.9%) | TEAE: Paraesthesia [1, 4]: 0 | TEAE: Pneumonia [1, 4]: 1 (2.9%) | TEAE: Pruritus [1, 4]: 0 | TEAE: Rhinitis [1, 4]: 2 (5.9%) | TEAE: Thrombocytopenia [1, 4]: 0 | TEAE: Urticaria [1, 4]: 1 (2.9%) | TEAE: Vertigo [1, 4]: 2 (5.9%) | QTc interval - change from baseline Borderline: Incr. from B 30-60 ms [1, 5]: 0/33 | QTc interval - change from baseline Prolonged: Incr. from B > 60 ms [1, 5]: 0/33 | QTc interval Prolonged: > 450 ms (m); > 470 ms (f) [1, 5]: 0/33 | QTc interval ≥ 500 ms [1, 5]: 0/33 | Further patients with an elevated AST (> 3 x ULN), apart from the SAE patient ([1]; Group 1A: adults, single IM dose): one | Patients who did not complete study treatment [1, 6]: 0 | Patients with any TEAE [1, 6]: 18 (60%) | Patients with any serious AE [1, 6]: 0 | TEAE: Bradycardia [1, 6]: 0 | TEAE: Convulsion [1, 6]: 0 | TEAE: Cough [1, 6]: 2 (6.7%) | TEAE: Cytolytic hepatitis [1, 6]: 0 | TEAE: Dizziness [1, 6]: 1 (3.3%) | TEAE: Eyelid pruritus [1, 6]: 0 | TEAE: Gastrointestinal disorders [1, 6]: 7 (23.3%) | TEAE: General Disorders/Administration site disorders [1, 6]: 1 (3.3%) | TEAE: Headache [1, 6]: 4 (13.3%) | TEAE: Hypertension [1, 6]: 1 (3.3%) | TEAE: Malaria [1, 6]: 0 | TEAE: Neck pain [1, 6]: 1 (3.3%) | TEAE: Paraesthesia [1, 6]: 1 (3.3%) | TEAE: Pneumonia [1, 6]: 0 | TEAE: Pruritus [1, 6]: 1 (3.3%) | TEAE: Rhinitis [1, 6]: 0 | TEAE: Tachycardia [1, 6]: 1 (3.3%) | TEAE: Thrombocytopenia [1, 6]: 0 | TEAE: Urticaria [1, 6]: 0 | TEAE: Vertigo [1, 6]: 2 (6.7%) | QTc interval - change from baseline Borderline: Incr. from B 30-60 ms [1, 7]: 0/30 | QTc interval - change from baseline Prolonged: Incr. from B > 60 ms [1, 7]: 0/30 | QTc interval Prolonged: > 450 ms (m); > 470 ms (f) [1, 7]: 0/30 | QTc interval ≥ 500 ms [1, 7]: 0/30 | Patients who did not complete study treatment [1, 8]: 0 | Patients with any TEAE [1, 8]: 14 (46.7%) | Patients with any serious AE [1, 8]: 0 | TEAE: Arthralgia [1, 8]: 1 (3.3%) | TEAE: Bradycardia [1, 8]: 0 | TEAE: Convulsion [1, 8]: 0 | TEAE: Cough [1, 8]: 1 (3.3%) | TEAE: Cytolytic hepatitis [1, 8]: 0 | TEAE: Dizziness [1, 8]: 2 (6.7%) | TEAE: Eyelid pruritus [1, 8]: 0 | TEAE: Gastrointestinal disorders [1, 8]: 1 (3.3%) | TEAE: General Disorders/Administration site disorders [1, 8]: 0 | TEAE: Headache [1, 8]: 3 (10%) | TEAE: Hypertension [1, 8]: 0 | TEAE: Malaria [1, 8]: 0 | TEAE: Neck pain [1, 8]: 0 | TEAE: Paraesthesia [1, 8]: 0 | TEAE: Pneumonia [1, 8]: 0 | TEAE: Pruritus [1, 8]: 0 | TEAE: Rhinitis [1, 8]: 0 | TEAE: Tachycardia [1, 8]: 0 | TEAE: Thrombocytopenia [1, 8]: 0 | TEAE: Urticaria [1, 8]: 0 | TEAE: Vertigo [1, 8]: 0 | QTc interval - change from baseline Prolonged: Incr. from B > 60 ms [1, 9]: 0/30 | QTc interval Prolonged: > 450 ms (m); > 470 ms (f) [1, 9]: 0/30 | QTc interval ≥ 500 ms [1, 9]: 0/30 | Patients with any TEAE [1, 10]: 11 (57.9%) | TEAE: Arthralgia [1, 10]: 0 | TEAE: Bradycardia [1, 10]: 0 | TEAE: Convulsion [1, 10]: 1 (5.3%) | TEAE: Cough [1, 10]: 1 (5.3%) | TEAE: Cytolytic hepatitis [1, 10]: 0 | TEAE: Dizziness [1, 10]: 0 | TEAE: Eyelid pruritus [1, 10]: 1 (5.3%) | TEAE: Gastrointestinal disorders [1, 10]: 5 (26.3%) | TEAE: General Disorders/Administration site disorders [1, 10]: 1 (5.3%) | TEAE: Headache [1, 10]: 3 (15.8%) | TEAE: Hypertension [1, 10]: 0 | TEAE: Malaria [1, 10]: 0 | TEAE: Neck pain [1, 10]: 0 | TEAE: Paraesthesia [1, 10]: 0 | TEAE: Pneumonia [1, 10]: 0 | TEAE: Pruritus [1, 10]: 0 | TEAE: Rhinitis [1, 10]: 0 | TEAE: Tachycardia [1, 10]: 0 | TEAE: Urticaria [1, 10]: 0 | TEAE: Vertigo [1, 10]: 0 | QTc interval - change from baseline Borderline: Incr. from B 30-60 ms [1, 11]: 0/18 | QTc interval - change from baseline Prolonged: Incr. from B > 60 ms [1, 11]: 0/18 | QTc interval Prolonged: > 450 ms (m); > 470 ms (f) [1, 11]: 0/18 | QTc interval ≥ 500 ms [1, 11]: 0/18 | Deaths ([1]; Study 1): No deaths | ECG abnormalities, clinical significance ([1]; Study 1): No clinical significant abnormalities | Ophthalmologic disorders possibly related to SAR97276A ([1]; Study 1): No ophthalmologic disorders | Participants with alkaline phosphatase elevated (> 1.5 x ULN) ([1]; Study 1): 19 | SAEs regarded as related to SAR97276A by the investigators ([1]; Study 1): None | Tolerability ([1]; Study 1): well tolerated | Patients with a serious adverse event (SAE), total ([1]; Study 1, all groups): four | Patients who experienced a TEAE, all cohorts ([1]; Study 1, out of 113 patients): 61 (54%) | Efficacy in malaria monkey model (malaria monkey model): highly efficacious | AUC(0-t) [2, 12]: 479 ± 111 ng·h/mL | Cmax [2, 12]: 332 ± 91 ng/mL | AUC(0-t) [2, 13]: 674 ± 109 ng·h/mL | Cmax [2, 13]: 355 ± 51 ng/mL | AUC(0-t) ([2]; im, 0.25 mg/kg, Group 2B: 3 days IM twice daily 0.25 mg/kg, teenagers, n=8, AUC0-12 at steady state multiplied by 2): 1400 ± 270 ng·h/mL | Cmax ([2]; im, 0.25 mg/kg, Group 2B: 3 days IM twice daily 0.25 mg/kg, teenagers, n=8): 477 ± 91 ng/mL | AUC(0-t) [2, 14]: 1470 ± 375 ng·h/mL | Cmax [2, 14]: 862 ± 45 ng/mL | Vd [2, 15]: 0.217 L/kg | clearance [2, 15]: 6.55 mL/min/kg | AUC(0-t) [2, 16]: 480 ± 92 ng·h/mL | Cmax [2, 16]: 390 ± 55 ng/mL | Vd ([2]; adults): 0.27 L/kg | clearance ([2]; adults): 4.58 mL/min/kg | Inter-individual variability based on Cmax and AUC ([2]; whatever the populations or the route of administration): < 25%
